How the values were obtained:
Type in all cases: in vivo
Setaria viridis = assay: Pre-emergence herbicidal activity against SETVI; conditions: Setaria viridis, 504 h, dosage 80 g/ha
Source text: (§1) 1. Pre-Emergence Herbicidal Action and Crop Plant Compatibility Seeds of monocotyledonous and dicotyledonous weed plants and crop plants are placed in plastic or wood fiber pots and covered with soil. The compounds of the invention, formulated in the form of wettable powders (WP) or as emulsion concentrates (EC), are then applied onto the surface of the covering soil as aqueous suspension or emulsion with addition of 0.5% additive at a water application rate of 600 l/ha (converted). After the treatment, the pots are placed in a greenhouse and kept under good growth conditions for the trial plants. After about 3 weeks, the effect of the preparations is scored visually in comparison with untreated controls as percentages. For example, 100% activity=the plants have died, 0% activity=like control plants. POLCO: Polygonum convolvulus SETVI: Setaria viridis

Amaranthus retroflexus = assay: Post-emergence herbicidal activity against AMARE; conditions: Amaranthus retroflexus, 504 h, dosage 320 g/ha, rated about 3 weeks after treatment
How it was run: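 Greenhouse pots of sandy loam; plants sprayed at one-leaf stage, 2 to 3 weeks after sowing, with WP or EC formulations in water plus 0.5% additive at 600 l/ha. Activity rated visually after about 3 weeks against untreated controls (100% = plants dead, 0% = like control).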

Stellaria media = assay: Pre-emergence herbicidal activity against STEME; conditions: Stellaria media, 504 h, dosage 80 g/ha
How it was run: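 Weed seeds sown in pots and covered with soil, then WP or EC formulations sprayed onto the soil surface as aqueous suspension/emulsion with 0.5% additive at 600 l/ha water. Kept in greenhouse; visual percent effect versus untreated controls scored after about 3 weeks (100% = plants dead).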

Pharbitis purpurea = assay: Post-emergence herbicidal activity against PHBPU; conditions: Ipomoea purpurea, 504 h, dosage 320 g/ha, rated about 3 weeks after treatment
How it was run: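 Greenhouse-grown plants sprayed post-emergence at the one-leaf stage, 2 to 3 weeks after sowing, with WP or EC formulations plus 0.5% additive at 600 l/ha water. Activity rated visually after about 3 weeks versus untreated controls (100% = plants dead, 0% = like control).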

Polygonum convolvulus = assay: Pre-emergence herbicidal activity against POLCO; conditions: Fallopia convolvulus, 504 h, dosage 80 g/ha
Source text: as §1

[1] = Post-emergence treatment, summary over harmful plants; conditions: 504 h, application rate of 0.32 kg of active substance or less per hectare, read-out: herbicidal action, post-emergence treatment (very good herbicidal activity)
How it was run: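 Greenhouse-grown weeds and crops were sprayed at the one-leaf stage (2–3 weeks post-sowing) with WP or EC formulations plus 0.5% additive at 600 l/ha water. About 3 weeks later, activity was visually rated against untreated controls (100% = dead plants, 0% = like control).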

Veronica persica = assay: Post-emergence herbicidal activity against VERPE; conditions: Veronica persica, 504 h, dosage 320 g/ha
How it was run: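 Greenhouse plants treated at one-leaf stage, 2–3 weeks after sowing, by spraying WP or EC formulations with 0.5% additive at 600 l/ha water. Visual rating about 3 weeks later versus untreated controls (100% = plants dead, 0% = like controls).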

SMILES | pest or weed control at 80 g/ha (Setaria viridis) [%] | pest or weed control at 320 g/ha (Amaranthus retroflexus) [%] | pest or weed control at 80 g/ha (Stellaria media) [%] | pest or weed control at 320 g/ha (Pharbitis purpurea) [%] | pest or weed control at 80 g/ha (Polygonum convolvulus) [%] | pest or weed control at 320 g/ha [1] [%] | pest or weed control at 320 g/ha (Veronica persica) [%]
C=C[C@]1(C(=O)N[C@H]2CO[C@@H](C(=O)OCc3ccccc3)C2)CC(c2cc(F)cc(F)c2)=NO1 (mixture of isomers) [I-37, benzyl cis-4-[[(5S)-3-(3,5-difluorophenyl)-5-vinyl-4H-isoxazole-5-carbonyl]amino]tetrahydrofuran-2-carboxylate] | 100 | 80 | 100 | 90 | 100 | 80 to 100 | 80
C=C[C@]1(C(=O)N[C@H]2CO[C@@H](C(=O)OC(C)(C)C)C2)CC(c2cc(F)cc(F)c2)=NO1 (mixture of isomers) [I-38, tert-butyl cis-4-[[(5S)-3-(3,5-difluorophenyl)-5-vinyl-4H-isoxazole-5-carbonyl]amino]tetrahydrofuran-2-carboxylate] | 100 | 100 | 100 | 90 | 100 | 80 to 100 | 80
CC(C)OC(=O)[C@H]1C[C@@H](NC(=O)C2(C)CC(c3cccc(F)c3)=NO2)CO1 (mixture of isomers) [I-32, isopropyl cis-4-[[(5RS)-3-(3-fluorophenyl)-5-methyl-4H-isoxazole-5-carbonyl]amino]tetrahydrofuran-2-carboxylate] | 100 | 80 | 90 | 90 | 90 | 80 to 100 | 80
CC(C)(C)OC(=O)[C@H]1C[C@@H](NC(=O)C2(C)CC(c3cccc(F)c3)=NO2)CO1 (mixture of isomers) [I-33, tert-butyl cis-4-[[(5RS)-3-(3-fluorophenyl)-5-methyl-4H-isoxazole-5-carbonyl]amino]tetrahydrofuran-2-carboxylate] | 100 | 90 | 100 | 90 | 90 | 80 to 100 | 80
CC1(C(=O)N[C@H]2CO[C@@H](C(=O)OCc3ccccc3)C2)CC(c2cccc(F)c2)=NO1 (mixture of isomers) [I-34, benzyl cis-4-[[(5RS)-3-(3-fluorophenyl)-5-methyl-4H-isoxazole-5-carbonyl]amino]tetrahydrofuran-2-carboxylate] | 90 | 80 | 90 | 90 | 90 | 80 to 100 | 80
C=CC1(C(=O)N[C@H]2CO[C@@H](C(=O)O)C2)CC(c2cc(F)cc(F)c2)=NO1 (relative stereo) [I-21, cis-4-[[3-(3,5-difluorophenyl)-5-vinyl-4H-isoxazole-5-carbonyl]amino]tetrahydrofuran-2-carboxylic acid] | 90 | 100 | 100 | 80 | 90 | 80 to 100 | 100
COC(=O)C1=C[C@@H](NC(=O)C2(C)CC(c3cccc(F)c3)=NO2)CO1 (stereo partly drawn) [I-46, methyl (3R)-3-[[3-(3-fluorophenyl)-5-methyl-4H-isoxazole-5-carbonyl]amino]-2,3-dihydrofuran-5-carboxylate] | 100 | 80 | 100 | 90 | 90 | 80 to 100 | 80

Source: patent US11597724B2, “Herbicidally active 3-phenylisoxazoline-5-carboxamides of tetrahydro and dihydrofuran carboxylic acids and esters” (Bayer Aktiengesellschaft, priority 2017, dated 2023)
